Experiments:
[1] = biological target: Somatostatin receptor type 4 (Homo sapiens, UniProt P31391); assay: Agonist activity at human SST4 receptor expressed in CHO-K1 cells assessed as inhibition of NKH477-induced intracellular cAMP accumulation incubated for 20 mins by HTRF assay; type: cell-based
[2] = biological target: Voltage-gated inwardly rectifying potassium channel KCNH2 (Homo sapiens, UniProt Q12809); assay: Inhibition of hERG by fluorescence polarization assay; type: toxicity
[3] = biological target: Somatostatin receptor type 5 (Homo sapiens, UniProt P35346); assay: Agonist activity at human SST5 receptor expressed in CHO-K1 cells assessed as inhibition of NKH477-induced intracellular cAMP accumulation incubated for 20 mins by HTRF assay; type: cell-based
[4] = biological target: Somatostatin receptor type 3 (Homo sapiens, UniProt P32745); assay: Agonist activity at human SST3 receptor expressed in CHO-K1 cells assessed as inhibition of NKH477-induced intracellular cAMP accumulation incubated for 20 mins by HTRF assay; type: cell-based
[5] = biological target: Somatostatin receptor type 1 (Homo sapiens, UniProt P30872); assay: Agonist activity at human SST1 receptor expressed in CHO-K1 cells assessed as inhibition of NKH477-induced intracellular cAMP accumulation incubated for 20 mins by HTRF assay; type: cell-based
[6] = biological target: Somatostatin receptor type 2 (Homo sapiens, UniProt P30874)
Description: Agonist activity at human SST2 receptor expressed in CHO-K1 cells assessed as inhibition of NKH477-induced intracellular cAMP accumulation incubated for 20 mins by HTRF assay

[7] = biological target: Somatostatin receptor type 2 (Rattus norvegicus, UniProt P30680); assay: Agonist activity at rat SST2 receptor
[8] = Half life in Sprague-Dawley rat at 2.5 mg/kg, iv; details: in vivo
Cytochrome P450 2C9 [9] = biological target: T1, Cytochrome P450 2C9 (Homo sapiens, UniProt P11712); assay: Inhibition of human CYP2C9 expressed in insect cell microsomes at 10 uM in presence of NADP+ by fluorescence based analysis; type: ADME, Microsome
in vivo [10] = details: Sprague-Dawley, rat, po, 10 mg/kg
in vivo [11] = details: beagle, dog, po, 10 mg/kg
[12] = Volume of distribution at steady state in Sprague-Dawley rat at 2.5 mg/kg, iv; details: in vivo
Cytochrome P450 2D6 [13] = biological target: T2, Cytochrome P450 2D6 (Homo sapiens, UniProt P10635); assay: Inhibition of human CYP2D6 expressed in insect cell microsomes in presence of NADP+ by fluorescence based analysis
Cytochrome P450 2D6 [14] = biological target: T2, Cytochrome P450 2D6; assay: Inhibition of human CYP2D6 expressed in insect cell microsomes at 10 uM in presence of NADP+ by fluorescence based analysis; type: ADME, Microsome
[15] = Half life in Beagle dog at 2.5 mg/kg, iv; details: in vivo
[16] = biological target: Somatostatin receptor type 2 (Canis lupus familiaris, UniProt Q49LX6); assay: Agonist activity at dog SST2 receptor
Cytochrome P450 2C19 [17] = biological target: T3, Cytochrome P450 2C19 (Homo sapiens, UniProt P33261); assay: Inhibition of human CYP2C19 expressed in insect cell microsomes in presence of NADP+ by fluorescence based analysis
Cytochrome P450 3A4 [18] = biological target: T4, Cytochrome P450 3A4 (Homo sapiens, UniProt P08684); assay: Inhibition of human CYP3A4 expressed in insect cell microsomes at 10 uM in presence of NADP+ by fluorescence based analysis; type: ADME, Microsome
[19] = Clearance in Beagle dog at 2.5 mg/kg, iv; details: in vivo
in vivo [20] = details: beagle, dog, po, 10 mg/kg; remark: listed apart in the source
Cytochrome P450 2C9 [21] = biological target: T1, Cytochrome P450 2C9; assay: Inhibition of human CYP2C9 expressed in insect cell microsomes in presence of NADP+ by fluorescence based analysis
[22] = Volume of distribution at steady state in Beagle dog at 2.5 mg/kg, iv; details: in vivo
Cytochrome P450 3A4 [23] = biological target: T4, Cytochrome P450 3A4; assay: Inhibition of human CYP3A4 expressed in insect cell microsomes in presence of NADP+ by fluorescence based analysis
in vivo [24] = details: Sprague-Dawley, rat, po, 10 mg/kg; remark: listed apart in the source
[25] = Clearance in Sprague-Dawley rat at 2.5 mg/kg, iv; details: in vivo
Cytochrome P450 2C19 [26] = biological target: T3, Cytochrome P450 2C19; assay: Inhibition of human CYP2C19 expressed in insect cell microsomes at 10 uM in presence of NADP+ by fluorescence based analysis; type: ADME, Microsome

T1 sequence (P11712 whole entry): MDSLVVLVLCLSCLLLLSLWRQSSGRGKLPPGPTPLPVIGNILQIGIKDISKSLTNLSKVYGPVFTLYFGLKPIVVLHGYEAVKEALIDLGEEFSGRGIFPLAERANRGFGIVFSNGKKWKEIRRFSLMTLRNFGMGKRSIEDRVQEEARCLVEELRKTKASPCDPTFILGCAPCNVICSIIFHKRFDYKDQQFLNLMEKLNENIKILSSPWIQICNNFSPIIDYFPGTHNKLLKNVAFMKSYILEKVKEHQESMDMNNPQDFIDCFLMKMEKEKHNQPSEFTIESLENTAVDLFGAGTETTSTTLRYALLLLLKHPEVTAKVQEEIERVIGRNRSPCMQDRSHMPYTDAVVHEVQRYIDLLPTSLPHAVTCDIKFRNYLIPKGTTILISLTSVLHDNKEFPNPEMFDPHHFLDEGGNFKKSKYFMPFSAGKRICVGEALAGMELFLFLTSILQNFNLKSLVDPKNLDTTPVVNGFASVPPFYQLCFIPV
T2 sequence (P10635 whole entry): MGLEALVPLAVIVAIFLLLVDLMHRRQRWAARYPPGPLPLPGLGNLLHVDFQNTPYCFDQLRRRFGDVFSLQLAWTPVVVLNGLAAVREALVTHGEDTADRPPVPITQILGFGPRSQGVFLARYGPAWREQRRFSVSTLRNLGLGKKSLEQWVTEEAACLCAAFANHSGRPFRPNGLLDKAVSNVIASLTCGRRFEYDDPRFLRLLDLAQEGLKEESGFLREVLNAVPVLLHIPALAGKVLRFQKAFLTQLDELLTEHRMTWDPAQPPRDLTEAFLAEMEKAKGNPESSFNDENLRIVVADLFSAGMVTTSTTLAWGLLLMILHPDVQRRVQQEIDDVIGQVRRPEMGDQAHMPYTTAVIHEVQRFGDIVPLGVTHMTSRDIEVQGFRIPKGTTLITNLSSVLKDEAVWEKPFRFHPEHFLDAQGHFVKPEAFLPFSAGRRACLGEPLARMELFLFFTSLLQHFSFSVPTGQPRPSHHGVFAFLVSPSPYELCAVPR
Sequence of Somatostatin receptor type 5 (P35346 whole entry): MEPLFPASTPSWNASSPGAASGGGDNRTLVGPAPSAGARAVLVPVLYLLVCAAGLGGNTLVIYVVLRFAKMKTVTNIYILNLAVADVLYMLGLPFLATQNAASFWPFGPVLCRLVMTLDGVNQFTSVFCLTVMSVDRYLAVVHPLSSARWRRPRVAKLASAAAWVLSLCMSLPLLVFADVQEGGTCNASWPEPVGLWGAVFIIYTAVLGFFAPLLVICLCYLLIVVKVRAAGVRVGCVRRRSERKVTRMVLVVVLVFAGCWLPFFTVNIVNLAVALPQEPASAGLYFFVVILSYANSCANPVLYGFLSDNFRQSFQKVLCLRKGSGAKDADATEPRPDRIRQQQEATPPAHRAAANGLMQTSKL
Sequence of Somatostatin receptor type 2 (Homo sapiens, UniProt P30874) (P30874 whole entry): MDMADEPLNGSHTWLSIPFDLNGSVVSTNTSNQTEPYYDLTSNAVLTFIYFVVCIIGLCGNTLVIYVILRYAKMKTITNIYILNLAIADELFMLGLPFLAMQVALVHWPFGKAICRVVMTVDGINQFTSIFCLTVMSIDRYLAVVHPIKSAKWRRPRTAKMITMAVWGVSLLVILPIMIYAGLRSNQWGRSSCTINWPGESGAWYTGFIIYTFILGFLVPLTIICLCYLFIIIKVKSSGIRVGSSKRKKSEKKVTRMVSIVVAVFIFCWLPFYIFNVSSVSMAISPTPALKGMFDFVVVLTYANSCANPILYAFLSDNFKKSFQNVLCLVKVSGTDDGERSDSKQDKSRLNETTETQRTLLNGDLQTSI
T4 sequence (P08684 whole entry): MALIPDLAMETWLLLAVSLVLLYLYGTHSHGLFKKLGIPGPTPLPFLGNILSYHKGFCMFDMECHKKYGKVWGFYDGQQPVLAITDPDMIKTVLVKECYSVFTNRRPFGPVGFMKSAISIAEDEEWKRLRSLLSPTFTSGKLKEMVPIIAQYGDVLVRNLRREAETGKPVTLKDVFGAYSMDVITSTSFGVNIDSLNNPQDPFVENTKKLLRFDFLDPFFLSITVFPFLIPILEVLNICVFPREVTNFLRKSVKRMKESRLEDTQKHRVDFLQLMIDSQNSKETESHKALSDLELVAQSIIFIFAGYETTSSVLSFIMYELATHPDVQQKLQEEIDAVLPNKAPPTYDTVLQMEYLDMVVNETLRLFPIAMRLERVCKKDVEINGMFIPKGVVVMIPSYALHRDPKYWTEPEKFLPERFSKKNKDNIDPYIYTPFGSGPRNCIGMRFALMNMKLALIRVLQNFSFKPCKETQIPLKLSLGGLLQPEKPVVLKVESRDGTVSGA
T3 sequence (P33261 whole entry): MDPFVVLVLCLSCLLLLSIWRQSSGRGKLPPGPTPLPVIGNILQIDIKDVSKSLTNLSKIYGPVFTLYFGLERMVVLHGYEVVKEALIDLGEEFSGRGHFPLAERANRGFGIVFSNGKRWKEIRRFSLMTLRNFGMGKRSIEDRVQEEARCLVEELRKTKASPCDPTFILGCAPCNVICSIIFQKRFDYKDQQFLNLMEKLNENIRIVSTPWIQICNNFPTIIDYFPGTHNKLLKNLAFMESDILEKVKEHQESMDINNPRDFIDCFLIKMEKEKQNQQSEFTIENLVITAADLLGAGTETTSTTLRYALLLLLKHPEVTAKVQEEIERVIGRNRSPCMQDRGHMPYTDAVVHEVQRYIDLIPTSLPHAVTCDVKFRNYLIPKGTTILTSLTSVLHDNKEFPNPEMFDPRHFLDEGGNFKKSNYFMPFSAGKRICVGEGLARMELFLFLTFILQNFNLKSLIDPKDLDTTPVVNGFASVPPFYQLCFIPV
Sequence of Somatostatin receptor type 3 (P32745 whole entry): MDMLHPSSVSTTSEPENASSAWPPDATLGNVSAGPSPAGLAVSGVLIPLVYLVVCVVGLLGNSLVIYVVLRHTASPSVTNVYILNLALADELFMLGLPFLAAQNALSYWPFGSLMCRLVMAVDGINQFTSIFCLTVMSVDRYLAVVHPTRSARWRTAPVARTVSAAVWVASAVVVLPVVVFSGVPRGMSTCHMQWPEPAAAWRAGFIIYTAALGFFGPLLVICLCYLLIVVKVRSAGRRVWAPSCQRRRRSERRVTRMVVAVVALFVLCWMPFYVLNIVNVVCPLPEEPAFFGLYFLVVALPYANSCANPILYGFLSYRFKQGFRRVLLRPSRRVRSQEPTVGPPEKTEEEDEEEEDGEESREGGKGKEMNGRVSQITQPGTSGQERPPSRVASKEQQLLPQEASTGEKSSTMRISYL
Sequence of Somatostatin receptor type 1 (P30872 whole entry): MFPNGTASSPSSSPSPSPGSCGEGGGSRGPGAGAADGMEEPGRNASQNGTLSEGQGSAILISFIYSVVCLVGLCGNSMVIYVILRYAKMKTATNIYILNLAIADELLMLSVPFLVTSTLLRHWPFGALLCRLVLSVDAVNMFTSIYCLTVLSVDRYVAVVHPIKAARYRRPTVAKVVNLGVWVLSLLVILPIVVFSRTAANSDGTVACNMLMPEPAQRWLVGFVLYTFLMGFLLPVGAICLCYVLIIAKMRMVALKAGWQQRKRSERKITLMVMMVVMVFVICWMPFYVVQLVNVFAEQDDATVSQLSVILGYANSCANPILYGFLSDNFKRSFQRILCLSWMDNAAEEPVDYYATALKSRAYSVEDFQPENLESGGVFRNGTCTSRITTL
Sequence of Voltage-gated inwardly rectifying potassium channel KCNH2 (Q12809 whole entry): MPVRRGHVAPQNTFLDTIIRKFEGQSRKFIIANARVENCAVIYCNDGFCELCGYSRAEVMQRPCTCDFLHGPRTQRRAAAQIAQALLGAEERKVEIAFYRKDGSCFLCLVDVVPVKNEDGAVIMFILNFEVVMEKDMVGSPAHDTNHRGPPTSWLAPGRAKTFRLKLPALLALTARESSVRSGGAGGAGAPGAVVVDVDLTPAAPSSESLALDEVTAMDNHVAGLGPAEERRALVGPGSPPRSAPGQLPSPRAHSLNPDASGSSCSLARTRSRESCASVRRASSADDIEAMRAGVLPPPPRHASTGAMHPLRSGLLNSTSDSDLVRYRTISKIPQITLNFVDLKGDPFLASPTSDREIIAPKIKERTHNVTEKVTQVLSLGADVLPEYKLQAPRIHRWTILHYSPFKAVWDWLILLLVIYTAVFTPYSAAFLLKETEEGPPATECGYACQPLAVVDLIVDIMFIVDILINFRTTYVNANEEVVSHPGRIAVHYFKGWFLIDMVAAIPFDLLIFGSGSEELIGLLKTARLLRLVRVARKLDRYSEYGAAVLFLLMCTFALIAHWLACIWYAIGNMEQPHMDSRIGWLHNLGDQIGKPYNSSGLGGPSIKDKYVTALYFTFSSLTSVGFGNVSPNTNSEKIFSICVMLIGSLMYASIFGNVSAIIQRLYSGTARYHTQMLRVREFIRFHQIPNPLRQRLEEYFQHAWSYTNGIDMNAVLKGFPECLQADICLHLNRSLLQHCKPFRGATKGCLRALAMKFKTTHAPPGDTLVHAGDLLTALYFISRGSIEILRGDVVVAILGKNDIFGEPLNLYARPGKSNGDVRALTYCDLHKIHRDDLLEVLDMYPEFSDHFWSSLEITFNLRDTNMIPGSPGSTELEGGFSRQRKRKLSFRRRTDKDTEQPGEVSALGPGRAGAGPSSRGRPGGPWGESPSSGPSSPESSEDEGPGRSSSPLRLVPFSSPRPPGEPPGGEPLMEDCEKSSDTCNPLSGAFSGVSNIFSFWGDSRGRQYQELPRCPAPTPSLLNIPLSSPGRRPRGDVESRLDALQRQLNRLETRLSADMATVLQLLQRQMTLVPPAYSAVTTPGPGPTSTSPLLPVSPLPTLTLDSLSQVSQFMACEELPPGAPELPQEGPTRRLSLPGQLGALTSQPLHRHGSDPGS

| Compound | EC50 [1] [µM] | EC50 [3] [µM] | EC50 [4] [µM] | EC50 [5] [µM] | EC50 [6] [µM] | IC50 [2] [µM] | further results |
| --- | --- | --- | --- | --- | --- | --- | --- |
| NC1CCN(c2c(-c3cc(F)cc(F)c3)cnc3ccc(-c4cccc(O)c4)cc23)CC1 | 0.0158 | > 1 | > 1 | > 1 | – | < 1 | – |
| N#Cc1cccc(-c2ccc3ncc(-c4cc(F)cc(F)c4)c(N4CCC(N)CC4)c3c2)c1 | – | – | – | – | 0.0014 | – | – |
| NC1CCN(c2c(-c3cc(Cl)cc(Cl)c3)cnc3ccccc23)CC1 | – | – | – | – | 0.14 | – | – |
| NC1CCN(c2c(-c3cc(F)cc(F)c3)cnc3ccc(-c4cccc(F)c4O)cc23)CC1 | 0.0251 | > 1 | > 1 | > 1 | – | 1 | – |
| NC1CCN(c2c(-c3cc(F)cc(F)c3)cnc3ccc(-c4ccccc4O)cc23)CC1 | – | – | – | – | 0.0034 | – | – |

Further lines, with some results ahead:

| EC50 [1] [µM] | EC50 [3] [µM] | EC50 [4] [µM] | EC50 [5] [µM] | EC50 [6] [µM] | Compound | IC50 [2] [µM] | further results |
| --- | --- | --- | --- | --- | --- | --- | --- |
| > 1 | > 1 | > 1 | > 1 | 0.00017 | Cc1cc(F)cc(-c2cnc3ccc(-c4cccc(C#N)c4O)cc3c2N2CCC(N)CC2)c1 | – | – |
| 1 | > 1 | > 1 | > 1 | – | N#Cc1cccc(-c2ccc3ncc(-c4cccc(F)c4)c(N4CCC(N)CC4)c3c2)c1O | > 10 | – |
| 1 | > 1 | > 1 | > 1 | – | N#Cc1cccc(-c2ccc3ncc(-c4cc(F)cc(F)c4)c(N4CCC(N)CC4)c3c2)c1O [PALTUSOTINE] | – | EC50 [7]: 0.0012 µM; half-life [8]: 2.8 h; inhibition (INH) (Cytochrome P450 2C9 [9]): Not Active; AUC(0-inf) (in vivo [10]): 1610 ng·h/mL; AUC(0-inf) (in vivo [11]): 10400 ng·h/mL; Vd [12]: 1.5 L/kg; IC50 (Cytochrome P450 2D6 [13]): > 10 µM; inhibition (INH) (Cytochrome P450 2D6 [14]): Not Active; half-life [15]: 7.5 h; EC50 [16]: 0.0066 µM; IC50 (Cytochrome P450 2C19 [17]): 5.01 µM; inhibition (INH) (Cytochrome P450 3A4 [18]): Not Active; clearance [19]: 9.4 mL/min/kg; Cmax (in vivo [20]): 1370 ng/mL; IC50 (Cytochrome P450 2C9 [21]): 7.94 µM; Vd [22]: 3.5 L/kg; IC50 (Cytochrome P450 3A4 [23]): > 10 µM; Cmax (in vivo [24]): 129 ng/mL; clearance [25]: 9.1 mL/min/kg; inhibition (INH) (Cytochrome P450 2C19 [26]): Not Active |
| > 1 | > 1 | > 1 | > 1 | – | COc1cc(F)cc(-c2cnc3ccc(-c4cccc(C#N)c4O)cc3c2N2CCC(N)CC2)c1 | – | – |
| > 1 | > 1 | – | > 1 | 0.00034 | N#Cc1cc(F)cc(-c2ccc3ncc(-c4cc(F)cc(F)c4)c(N4CCC(N)CC4)c3c2)c1O | 10 | inhibition (INH) (Cytochrome P450 2C9 [9]): Not Active; IC50 (Cytochrome P450 2D6 [13]): > 10 µM; inhibition (INH) (Cytochrome P450 2D6 [14]): Not Active; IC50 (Cytochrome P450 2C19 [17]): 3.98 µM; inhibition (INH) (Cytochrome P450 3A4 [18]): Not Active; IC50 (Cytochrome P450 2C9 [21]): 6.31 µM; IC50 (Cytochrome P450 3A4 [23]): 10 µM; inhibition (INH) (Cytochrome P450 2C19 [26]): Not Active |

Source: ChEMBL document CHEMBL5223164 (ACS Med Chem Lett, 2023)
